Measurements reported in patent EP0976707A1, “CYCLOALKYL BENZYL ETHER COMPOUNDS” (Nissan Chemical Industries, Ltd., priority 1997, dated 1998).
Read-outs that look alike come from different tables or passages of the source.

Experiments:
Type in all cases: in vivo
Scirpus juncoides [1] = experiment: Comparative test, pre-emergence treatment under submerged conditions (as Test Example 1); parameters: key: 0 indicating no influence; 5 indicating complete withering; settings: three weeks after the treatment, rating 0-5
Excerpt: (§1) [Test Example 1] Herbicidal effect test by pre-emergence treatment to weeds under submerged conditions
(§2) In a 1/10,000-are Wagner pot was filled alluvial soil, which was mixed with water introduced therein to establish submerged conditions at a water depth of 4 cm. Respective seeds of Echinochloa crus-galli var. crus-galli, Monochoria vaginalis, Rotala indica and Scirpus juncoides were sowed mixedly in the pot and then 2.5 leaf stage rice seedlings were transplanted. The pot was placed in a greenhouse at 25 to 30°C to grow the plant. One day after the sowing, the compound of the present invention prepared according to one of Composition Examples was applied onto the water surface at a predetermined application rate. Three weeks after the treatment, the herbicidal effect on the rice plant and each kind of the weeds was examined. There was used five rating evaluation, with 0 indicating no influence and 5 indicating complete withering.
(§3) [drawing 170] (diastreomer-(1) and (2)) involved in the claims of WO 97/02258 and the compound No. A-5 of the present invention were carried out in manners similar to that in test example 1 and 2.

transplanted rice [2] = experiment: as above; parameters: key: 0 indicating no influence; 5 indicating complete withering; settings: pre-emergence treatment to weeds, three weeks after the treatment, rating 0-5
Excerpt: as §1, §2, §3

Monochoria vaginalis [3] = experiment: as above; parameters: key: 0 indicating no influence; 5 indicating complete withering; settings: three weeks after the treatment, rating 0-5
Excerpt: as §1, §2, §3

Rotala indica [4] = experiment: as above; parameters: key: 0 indicating no influence; 5 indicating complete withering; settings: three weeks after the treatment, rating 0-5
Excerpt: as §1, §2, §3

[5] = tested on: Echinochloa crus-galli var. crus-galli; experiment: as above; parameters: key: 0 indicating no influence; 5 indicating complete withering; settings: three weeks after the treatment, rating 0-5
Excerpt: as §1, §2, §3

Scirpus juncoides [6] = experiment: Comparative test, post-emergence treatment under submerged conditions (as Test Example 2); parameters: key: 0 indicating no influence; 5 indicating complete withering; settings: three weeks after the treatment, rating 0-5
Excerpt: (§4) [Test Example 2] Herbicidal effect test by post-emergence treatment to weeds under submerged conditions
as §2, with “When Echinochloa crus-galli var. crus-galli, Monochoria vaginalis, Rotala indica and Scirpus juncoides reached 1 to 2 leaf stage and” for “One day after”, “rice plant reached 4 leaf stage,” for “sowing,”, “on” for “on the rice plant and”, “examined in accordance” for “examined. There was used five rating evaluation,”, “the criteria of judgment in Test Example 1.” for “0 indicating no influence and 5 indicating complete withering.”
as §3

Monochoria vaginalis [7] = experiment: as above; parameters: key: 0 indicating no influence; 5 indicating complete withering; settings: three weeks after the treatment, rating 0-5
Excerpt: as §4
as §2, with “When Echinochloa crus-galli var. crus-galli, Monochoria vaginalis, Rotala indica and Scirpus juncoides reached 1 to 2 leaf stage and” for “One day after”, “rice plant reached 4 leaf stage,” for “sowing,”, “on” for “on the rice plant and”, “examined in accordance” for “examined. There was used five rating evaluation,”, “the criteria of judgment in Test Example 1.” for “0 indicating no influence and 5 indicating complete withering.”
as §3

[8] = tested on: Echinochloa crus-galli var. crus-galli; experiment: as above; parameters: key: 0 indicating no influence; 5 indicating complete withering; settings: three weeks after the treatment, rating 0-5
Excerpt: as §4
as §2, with “When Echinochloa crus-galli var. crus-galli, Monochoria vaginalis, Rotala indica and Scirpus juncoides reached 1 to 2 leaf stage and” for “One day after”, “rice plant reached 4 leaf stage,” for “sowing,”, “on” for “on the rice plant and”, “examined in accordance” for “examined. There was used five rating evaluation,”, “the criteria of judgment in Test Example 1.” for “0 indicating no influence and 5 indicating complete withering.”
as §3

Rotala indica [9] = experiment: as above; settings: three weeks after the treatment, rating 0-5
Excerpt: as §4
as §2, with “When Echinochloa crus-galli var. crus-galli, Monochoria vaginalis, Rotala indica and Scirpus juncoides reached 1 to 2 leaf stage and” for “One day after”, “rice plant reached 4 leaf stage,” for “sowing,”, “on” for “on the rice plant and”, “examined in accordance” for “examined. There was used five rating evaluation,”, “the criteria of judgment in Test Example 1.” for “0 indicating no influence and 5 indicating complete withering.”
as §3

Scirpus juncoides [10] = experiment: Herbicidal effect test under submerged conditions, inhibition ratio (Test Example 6); settings: Schoenoplectiella juncoides, 504 h, read-out: inhibition ratio (%), B (Scirpus juncoides)
Excerpt: (§5) [Test Example 6] Herbicidal effect test under submerged conditions
(§6) In a 1/5,000-are Wagner pot was filled alluvial soil, which was mixed with water introduced therein to establish submerged conditions at a water depth of 4 cm. After seeds of Monochoria vaginalis and Scirpus juncoides were sowed mixedly in the pot, 2.5 leaf stage rice seedlings were transplanted at a depth of 2 cm. On the next day of transplantation of the rice, the compound of the present invention prepared according to one of Composition Examples was applied. Three weeks after the treatment, the live weights of aerial parts of each kind of the weeds and rice were measured and inhibition ratios (%) were obtained according to Test Example 4. In the tables, (E) indicates expected values obtained by the equation of Colby and (F) indicates found values. Left side values and right side values in the column of application rate for each active ingredient indicate corresponding dosages of compounds in the column of compound name.
(§7) Synergistic herbicidal effect of herbicide mixtures will be explained as follows. That is, individual active compounds in many cases may be deficient in their herbicidal activity. In such a case, if the herbicidal activity of two active compounds in combination is higher than the simple sum of the activities of the compounds (expected activity), then this is called synergistic action. The expected activity from the stable combination of two herbicides, can be calculated as follows. (cf. Colby, S. R., Calculation of Synergistic and Antagonistic Reactions of Combination of Herbicides, Weed, vol. 15, pages 20-22 (1967)) E = α + β - ( α · β / 100) [formula] α : Inhibition ratio when herbicide A is applied in a rate of a kg/ha β : Inhibition ratio when herbicide B is applied in a rate of b kg/ha E : Inhibition ratio expected when herbicide A is applied in a rate of a kg/ha and herbicide B is applied in a rate of b kg/ha.

Monochoria vaginalis [11] = experiment: as above; settings: Pontederia vaginalis, 504 h, read-out: inhibition ratio (%), C (Monochoria vaginalis)
Excerpt: as §5, §6, §7

Scirpus juncoides [12] = experiment: Herbicidal effect test under submerged conditions (Test Example 5); parameters: key: 0 indicating no influence; 5 indicating complete withering; settings: three weeks after the treatment, rating 0-5
Excerpt: (§8) [Test Example 5] Herbicidal effect test under submerged conditions
(§9) In a 1/10,000-are Wagner pot was filled alluvial soil, which was mixed with water introduced therein to establish submerged conditions at a water depth of 4 cm. Respective seeds of Monochoria vaginalis, Rotala indica and Scirpus juncoides were sowed mixedly in the pot and then treated with the compound of the present invention prepared according to one of Composition Examples. Three weeks after the treatment, the herbicidal effect on the various weeds was examined.

Monochoria vaginalis [13] = experiment: as above; parameters: key: 0 indicating no influence; 5 indicating complete withering; settings: three weeks after the treatment, rating 0-5
Excerpt: as §8, §9

Rotala indica [14] = experiment: as above; parameters: key: 0 indicating no influence; 5 indicating complete withering; settings: three weeks after the treatment, rating 0-5
Excerpt: as §8, §9

rice plant = experiment: Phytotoxicity test under shallow planting conditions for rice plant (Test Example 4); settings: aerial part, three weeks after the treatment
Excerpt: [Test Example 4] Phytotoxicity test under shallow planting conditions for rice plant In a 1/5,000-are Wagner pot was filled alluvial soil, which was mixed with water introduced therein to establish submerged conditions at a water depth of 4 cm. Rice seedlings at 2.5 leaf stage were transplanted at a depth of 0.5 cm and the roots were exposed to the air. On the day when the transplantation was made, the compound of the present invention prepared according to one of Composition Examples was applied. Three weeks after the treatment, the live weight of the aerial part of the plant was measured and inhibition ratio (%) was obtained according to the following equation. Inhibition ratio (%) = (1 -(live weight of aerial part of treated plant)/(live weight of aerial part of non-treated plant)) x 100 [formula]

transplanted rice [15] = experiment: Herbicidal effect test under submerged conditions, inhibition ratio (Test Example 6); settings: live weight of aerial part, three weeks after the treatment
Excerpt: Herbicidal effect test under submerged conditions
In a 1/5,000-are Wagner pot was filled alluvial soil, which was mixed with water introduced therein to establish submerged conditions at a water depth of 4 cm. After seeds of Monochoria vaginalis and Scirpus juncoides were sowed mixedly in the pot, 2.5 leaf stage rice seedlings were transplanted at a depth of 2 cm. On the next day of transplantation of the rice, the compound of the present invention prepared according to one of Composition Examples was applied. […] In the tables, (E) indicates expected values obtained by the equation of Colby and (F) indicates found values.
The expected activity from the stable combination of two herbicides, can be calculated as follows.

[16] = dosage 25 g/ha, live weight of aerial part, three weeks after the treatment
[17] = dosage 2 g/ha, live weight of aerial part, three weeks after the treatment
[18] = dosage 4 g/ha, live weight of aerial part, three weeks after the treatment

## C=C(C)[C@@H]1C[C@@H]2O[C@]2(C)[C@H](OCc2ccccc2F)C1 [A-5, (1S, 2R, 4S, 6S)-2-(2-fluorobenzyloxy)-4-isopropenyl-1-methyl-7-oxabicyclo[4.1.0]heptane]
Scirpus juncoides [1]; dosage 12.5 g/ha
  herbicidal effect, B (Scirpus juncoides): 2
Scirpus juncoides [1]; dosage 50 g/ha
  herbicidal effect, B (Scirpus juncoides): 3
Scirpus juncoides [1]; dosage 200 g/ha
  herbicidal effect, B (Scirpus juncoides): 5
Transplanted rice [2]; dosage 12.5 g/ha
  herbicidal effect, a (transplanted rice): 0
Transplanted rice [2]; dosage 50 g/ha
  herbicidal effect, a (transplanted rice): 0
Transplanted rice [2]; dosage 200 g/ha
  herbicidal effect, a (transplanted rice): 0
Monochoria vaginalis [3]; dosage 12.5 g/ha
  herbicidal effect, C (Monochoria vaginalis): 2
Monochoria vaginalis [3]; dosage 50 g/ha
  herbicidal effect, C (Monochoria vaginalis): 5
Monochoria vaginalis [3]; dosage 200 g/ha
  herbicidal effect, C (Monochoria vaginalis): 5
Rotala indica [4]; dosage 12.5 g/ha
  herbicidal effect, D (Rotala indica): 2
Rotala indica [4]; dosage 50 g/ha
  herbicidal effect, D (Rotala indica): 5
Rotala indica [4]; dosage 200 g/ha
  herbicidal effect, D (Rotala indica): 5
[5]; dosage 12.5 g/ha
  herbicidal effect, A (Echinochloa crus-galli var. crus-galli): 5
[5]; dosage 50 g/ha
  herbicidal effect, A (Echinochloa crus-galli var. crus-galli): 5
[5]; dosage 200 g/ha
  herbicidal effect, A (Echinochloa crus-galli var. crus-galli): 5
Scirpus juncoides [6]; dosage 12.5 g/ha
  herbicidal effect, B (Scirpus juncoides): 1
Scirpus juncoides [6]; dosage 50 g/ha
  herbicidal effect, B (Scirpus juncoides): 3
Scirpus juncoides [6]; dosage 200 g/ha
  herbicidal effect, B (Scirpus juncoides): 5
Monochoria vaginalis [7]; dosage 12.5 g/ha
  herbicidal effect, C (Monochoria vaginalis): 1
Monochoria vaginalis [7]; dosage 50 g/ha
  herbicidal effect, C (Monochoria vaginalis): 4
Monochoria vaginalis [7]; dosage 200 g/ha
  herbicidal effect, C (Monochoria vaginalis): 5
[8]; dosage 12.5 g/ha
  herbicidal effect, A (Echinochloa crus-galli var. crus-galli): 1
[8]; dosage 50 g/ha
  herbicidal effect, A (Echinochloa crus-galli var. crus-galli): 5
[8]; dosage 200 g/ha
  herbicidal effect, A (Echinochloa crus-galli var. crus-galli): 5
Rotala indica [9]; dosage 12.5 g/ha
  herbicidal effect, D (Rotala indica): 1
Rotala indica [9]; dosage 50 g/ha
  herbicidal effect, D (Rotala indica): 3
Rotala indica [9]; dosage 200 g/ha
  herbicidal effect, D (Rotala indica): 4
Scirpus juncoides [10]; [16]
  pest or weed control at 25 g/ha: 52%
Monochoria vaginalis [11]; [16]
  pest or weed control at 25 g/ha: 59%
Scirpus juncoides [12]; dosage 125 g/ha
  herbicidal effect, B (Scirpus juncoides): 4
Scirpus juncoides [12]; dosage 250 g/ha
  herbicidal effect, B (Scirpus juncoides): 5
Scirpus juncoides [12]; dosage 500 g/ha
  herbicidal effect, B (Scirpus juncoides): 5
Monochoria vaginalis [13]; dosage 125 g/ha
  herbicidal effect, C (Monochoria vaginalis): 3
Monochoria vaginalis [13]; dosage 250 g/ha
  herbicidal effect, C (Monochoria vaginalis): 5
Monochoria vaginalis [13]; dosage 500 g/ha
  herbicidal effect, C (Monochoria vaginalis): 5
Rotala indica [14]; dosage 125 g/ha
  herbicidal effect, D (Rotala indica): 2
Rotala indica [14]; dosage 250 g/ha
  herbicidal effect, D (Rotala indica): 4
Rotala indica [14]; dosage 500 g/ha
  herbicidal effect, D (Rotala indica): 5
Rice plant; dosage 125 g/ha
  the ratio of live weight to the non-treated area (%): 86%
Rice plant; dosage 250 g/ha
  the ratio of live weight to the non-treated area (%): 67%
Transplanted rice [15]; dosage 25 g/ha
  inhibition ratio (%), a (transplanted rice): 0%

## Cc1ccc(NC(=O)NC(C)(C)c2ccccc2)cc1 [R-1, daimuron, reference compound]
Scirpus juncoides [12]; dosage 500 g/ha
  herbicidal effect, B (Scirpus juncoides): 5
Monochoria vaginalis [13]; dosage 500 g/ha
  herbicidal effect, C (Monochoria vaginalis): 0
Rotala indica [14]; dosage 500 g/ha
  herbicidal effect, D (Rotala indica): 1

## CCOC(=O)c1cnn(C)c1S(=O)(=O)NC(=O)Nc1nc(OC)cc(OC)n1 [R-2, pyrazosulfuron ethyl]
Scirpus juncoides [10]; [17]
  pest or weed control at 2 g/ha: 71%
Monochoria vaginalis [11]; [17]
  pest or weed control at 2 g/ha: 80%
Transplanted rice [15]; dosage 2 g/ha
  inhibition ratio (%), a (transplanted rice): 0%

## COC(=O)c1c(Cl)nn(C)c1S(=O)(=O)NC(=O)Nc1nc(OC)cc(OC)n1 [R-3, halosulfuron methyl]
Scirpus juncoides [10]
  pest or weed control at 4 g/ha: 66%
Monochoria vaginalis [11]
  pest or weed control at 4 g/ha: 71%
Transplanted rice [15]; dosage 4 g/ha
  inhibition ratio (%), a (transplanted rice): 0%

## COc1cc(OC)nc(NC(=O)NS(=O)(=O)c2c(Cl)nc3ccccn23)n1 [R-4, imazosulfuron]
Scirpus juncoides [10]; [18]
  pest or weed control at 4 g/ha: 60%
Monochoria vaginalis [11]; [18]
  pest or weed control at 4 g/ha: 65%
